One data set relates to Hepacivirus hominis. The data set is described as follows: Inhibition of HCV recombinant NS3 helicase at 100 uM.
A short description of data set [1]: Inhibition of HCV recombinant NS3 helicase. Set-up: species or system Hepacivirus hominis.
The subject of the next data set is Hepatitis C virus. The data set is described as follows: Antiviral activity against HCV in human Huh5-2 cells assessed as inhibition of HCV subgenomic replication. The format is functional, organism-based, Hepacivirus hominis. The conditions noted are these: Huh-5-2.
Data set [2] is described as follows: Cytotoxicity against human Huh5-2 cells by MTS assay. The format is cell-based, Huh-5-2.

SMILES strings stand for the structures. Converted amounts (≈) assume the structure as drawn. The source made the active and inactive calls. The calls are words filed in the database; no cut-off is given here.

For `COC(=O)c1ccc(CNC(=O)c2cc(/C=C/C(C)=O)c[nH]2)cc1`, the outcome with Hepacivirus hominis was inactive.

As for `COC(=O)c1ccc(CNC(=O)c2ccc(/C=C/C(C)=O)[nH]2)cc1`, the IC50 – broadly, the concentration that gives 50% inhibition – in data set [1] came to 260 nM. Also, in the data set with Hepatitis C virus, the 50% effective concentration (EC50) (in general, the concentration needed to bring the measured effect to its halfway point) amounted to 3 µg/mL (≈ 9.19 µM). For the same compound, half-maximal cytotoxicity in data set [2] (CC50) was put at 10 µg/mL (≈ 30.6 µM).

(Values after ChEMBL document CHEMBL1136909, “Discovery of a novel HCV helicase inhibitor by a de novo drug design approach” (Bioorg Med Chem Lett, 2009).)
